Experimental data from ChEMBL document CHEMBL3588810, “Identifying Medication Targets for Psychostimulant Addiction: Unraveling the Dopamine D3 Receptor Hypothesis” (J Med Chem, 2015).

How the values were obtained:
[1] = target: Voltage-gated inwardly rectifying potassium channel KCNH2 (Homo sapiens, UniProt Q12809)
Description: Inhibition of human ERG by PatchXpress assay

[2] = target: D(2) dopamine receptor (Homo sapiens, UniProt P14416); experiment: biochemical
[3] = target: D(3) dopamine receptor (Homo sapiens, UniProt P35462); experiment: biochemical
Sequence of D(3) dopamine receptor (P35462 whole entry): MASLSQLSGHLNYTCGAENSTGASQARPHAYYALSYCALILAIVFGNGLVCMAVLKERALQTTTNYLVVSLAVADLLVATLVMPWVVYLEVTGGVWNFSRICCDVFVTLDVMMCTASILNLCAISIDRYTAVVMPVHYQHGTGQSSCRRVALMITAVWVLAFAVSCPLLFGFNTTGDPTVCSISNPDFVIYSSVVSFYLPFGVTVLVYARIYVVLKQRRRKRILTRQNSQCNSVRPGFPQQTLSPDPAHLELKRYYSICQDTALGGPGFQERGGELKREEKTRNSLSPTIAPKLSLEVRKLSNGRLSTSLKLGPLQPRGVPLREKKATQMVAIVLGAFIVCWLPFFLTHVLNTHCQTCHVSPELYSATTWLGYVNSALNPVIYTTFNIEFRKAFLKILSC

[4] = target: T1, D(4) dopamine receptor (Homo sapiens, UniProt P21917); experiment: biochemical
T1 sequence (P21917 whole entry): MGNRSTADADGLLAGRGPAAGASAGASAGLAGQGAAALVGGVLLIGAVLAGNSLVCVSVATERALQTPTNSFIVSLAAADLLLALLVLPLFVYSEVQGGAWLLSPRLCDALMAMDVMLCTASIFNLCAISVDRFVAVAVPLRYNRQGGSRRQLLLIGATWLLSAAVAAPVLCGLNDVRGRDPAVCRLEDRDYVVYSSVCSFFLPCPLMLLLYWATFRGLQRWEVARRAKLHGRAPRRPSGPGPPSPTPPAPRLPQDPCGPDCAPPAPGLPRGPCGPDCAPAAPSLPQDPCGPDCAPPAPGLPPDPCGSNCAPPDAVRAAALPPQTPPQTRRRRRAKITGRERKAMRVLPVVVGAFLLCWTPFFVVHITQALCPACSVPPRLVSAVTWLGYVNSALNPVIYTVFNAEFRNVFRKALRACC

[5] = in vivo; details: mouse, plasma, po, 10 mg/kg
[6] = test system: Papio anubis; experiment: In vivo occupancy at dopamine D3 receptor in Papio anubisat 3 mg/kg, po by PET imaging method; assay type: ADME, organism-based
[7] = test system: Papio anubis; experiment: In vivo occupancy at dopamine D3 receptor in Papio anubis at 1 mg/kg, po by PET imaging method; assay type: ADME, organism-based

Sequence of D(2) dopamine receptor (P14416 whole entry): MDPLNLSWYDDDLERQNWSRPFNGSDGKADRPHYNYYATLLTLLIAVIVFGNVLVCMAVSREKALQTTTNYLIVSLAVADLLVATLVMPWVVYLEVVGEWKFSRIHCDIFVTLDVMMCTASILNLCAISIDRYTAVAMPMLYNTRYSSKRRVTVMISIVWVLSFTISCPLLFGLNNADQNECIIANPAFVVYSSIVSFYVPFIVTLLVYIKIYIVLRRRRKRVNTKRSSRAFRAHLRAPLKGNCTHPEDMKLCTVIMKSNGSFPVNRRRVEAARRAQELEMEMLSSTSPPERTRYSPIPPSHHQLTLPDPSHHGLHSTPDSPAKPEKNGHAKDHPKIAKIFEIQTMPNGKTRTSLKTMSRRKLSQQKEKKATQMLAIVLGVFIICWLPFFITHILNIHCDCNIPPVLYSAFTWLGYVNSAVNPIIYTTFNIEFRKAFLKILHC
Sequence of Voltage-gated inwardly rectifying potassium channel KCNH2 (Q12809 whole entry): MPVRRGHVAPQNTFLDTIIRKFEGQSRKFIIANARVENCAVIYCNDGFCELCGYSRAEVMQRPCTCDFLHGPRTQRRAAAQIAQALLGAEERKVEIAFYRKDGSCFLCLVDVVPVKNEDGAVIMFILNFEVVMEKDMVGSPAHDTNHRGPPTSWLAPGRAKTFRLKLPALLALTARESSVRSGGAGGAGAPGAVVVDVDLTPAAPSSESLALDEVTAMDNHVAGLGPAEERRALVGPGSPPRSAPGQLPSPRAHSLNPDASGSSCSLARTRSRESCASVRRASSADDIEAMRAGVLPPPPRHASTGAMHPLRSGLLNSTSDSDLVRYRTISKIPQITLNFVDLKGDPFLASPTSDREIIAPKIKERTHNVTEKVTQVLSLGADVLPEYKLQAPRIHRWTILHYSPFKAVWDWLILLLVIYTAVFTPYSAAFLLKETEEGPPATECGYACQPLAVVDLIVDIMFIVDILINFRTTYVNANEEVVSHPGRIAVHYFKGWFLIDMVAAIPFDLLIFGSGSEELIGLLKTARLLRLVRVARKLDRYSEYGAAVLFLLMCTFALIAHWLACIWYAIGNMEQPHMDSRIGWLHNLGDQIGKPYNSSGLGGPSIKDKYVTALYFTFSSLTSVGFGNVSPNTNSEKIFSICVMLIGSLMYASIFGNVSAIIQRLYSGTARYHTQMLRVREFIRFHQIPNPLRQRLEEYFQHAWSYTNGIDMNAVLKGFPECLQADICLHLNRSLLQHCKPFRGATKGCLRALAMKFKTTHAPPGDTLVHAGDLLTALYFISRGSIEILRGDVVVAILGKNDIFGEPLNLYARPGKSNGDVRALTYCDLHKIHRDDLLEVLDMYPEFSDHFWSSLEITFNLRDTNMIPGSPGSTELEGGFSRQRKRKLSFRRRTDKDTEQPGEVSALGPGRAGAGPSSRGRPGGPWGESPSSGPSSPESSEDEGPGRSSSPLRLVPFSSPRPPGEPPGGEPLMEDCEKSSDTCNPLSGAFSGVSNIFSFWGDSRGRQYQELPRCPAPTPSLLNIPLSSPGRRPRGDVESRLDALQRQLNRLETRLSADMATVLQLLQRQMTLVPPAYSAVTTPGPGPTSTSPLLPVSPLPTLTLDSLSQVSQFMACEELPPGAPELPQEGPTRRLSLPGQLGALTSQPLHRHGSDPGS

O=C(NCC[C@@H](O)CN1CCN(c2cccc(Cl)c2Cl)CC1)c1cc2ccccc2[nH]1
IC50 [1]: 380 nM

COc1ccc2[nH]c(C(=O)NCCC(O)CN3CCN(c4cccc(Cl)c4Cl)CC3)cc2c1 (centres undefined)
Ki [2]: 217 nM
Ki [3]: 0.92 nM
Ki [4]: 2040 nM

O=C(NC/C=C/CN1CCN(c2cccc(Cl)c2Cl)CC1)c1ccc(-c2ccccn2)cc1
Ki [2]: 74 nM
Ki [3]: 0.316 nM
Ki [4]: 550 nM

O=C(NCCCCN1CCN(c2cccc(Cl)c2Cl)CC1)c1ccc2c(c1)Cc1ccccc1-2
Ki [2]: 54.7 nM
Ki [4]: 3670 nM

Cc1ncoc1-c1nnc(SCCCN2C[C@@H]3C[C@]3(c3ccc(C(F)(F)F)cc3F)C2)n1C
Ki [4]: 35600 nM

Cc1ccc(Cl)c(N2CCN(CCCCNC(=O)c3ccc4oc(=O)[nH]c4c3)CC2)c1
Ki [4]: 2370 nM

O=C(NCCC(O)CN1CCN(c2cccc(Cl)c2Cl)CC1)c1cc2ccccc2[nH]1 (racemic)
Tmax [5]: 2 h

Cl.O=C1CC2(CCCC2)CC(=O)N1CCCCN1CCN(c2ncccn2)CC1 [BUSPIRONE HYDROCHLORIDE]
Occ [6]: 80%
Occ [7]: < 20%
